The values below come from US6407257B1, “Derivatives of erythromycin, their preparation process and their use as medicaments” (Aventis Pharma S.A., priority 1998, dated 2002).

One experiment has as its system Streptococcus pyogenes. The experiment can be described thus: Method of dilutions in liquid medium (minimal inhibitory concentration). The experiment is classed as cell-based. The settings on record: incubation 24 hours at 37° C., growth inhibition by transillumination. On the procedure: (§1) A—Method of Dilutions in Liquid Medium A series of tubes were prepared in which the same quantity of nutritive sterile medium is distributed. Increasing quantities of the product to be studied are distributed into each tube, then each tube is sown with a bacterial strain. After incubation for 24 hours in a heating chamber at 37° C., the growth inhibition is evaluated by transillumination, which allows the minimal inhibitory concentrations to be determined, expressed in micrograms/cm^3. The following results were obtained

In the next experiment the test system is Streptococcus pneumoniae. Described as above. The experiment is classed as cell-based. Particulars: incubation 24 hours at 37° C., growth inhibition by transillumination. The procedure:
as §1

As for “2-Fluoro-11,12-dideoxy-3-de[(2,6-dideoxy-3-C-methyl-3-0-methyl-alpha-L-ribohexopyranosyl)oxy]-6-0-methyl-3-oxo-12,11-[oxycarbonyl[[4-[4-(4-aminophenyl)-1H-imidazol-1-yl]butyl]imino]]-eryrthromycin [EX. 2]”, the figures for the minimal inhibitory concentrations with Streptococcus pyogenes and in the experiment on Streptococcus pneumoniae were 0.3 micrograms/cm^3 and 0.150 micrograms/cm^3, respectively.
As to `CCC1OC(=O)C(C)C(=O)C(C)C(OC2OC(C)CC(N(C)C)C2O)C(C)(OC)CC(C)C(=O)C(C)C2N(CCCCn3cnc(-c4ccc(N)cc4)c3)C(=O)OC12C` [EX. 1, 11,12-Dideoxy-3-de[(2,6-dideoxy-3-C-methyl-3-0-methyl-alpha-L-ribohexopyranosyl)oxy]-6-0-methyl-3-oxo-12,11-[oxycarbonyl-[[4-[4-(4-aminophenyl)-1H-imidazol-1-yl]butyl]imino]]-eryrthromycin], the minimal inhibitory concentrations in the experiment on Streptococcus pyogenes came out at 2.5 micrograms/cm^3; with Streptococcus pneumoniae, 1.2 micrograms/cm^3.
